Measured values as given in publication PMC7560154, “Novel Antimicrobial Peptide from Temporin L in The Treatment of Staphylococcus pseudintermedius and Malassezia pachydermatis in Polymicrobial Inter-Kingdom Infection” (Antibiotics, 2020).
In brackets after ≈: the same amount, converted by molar mass. Read-outs that look alike come from different tables or passages of the source. Where a SMILES comes first, the peptide text is derived from it. [ ]: non-standard residue; d: D form. Hyp = O=C(O)[C@@H]1C[C@@H](O)CN1; dHyp = O=C(O)[C@H]1C[C@H](O)CN1; Aic = NC1(C(=O)O)Cc2ccccc2C1; dNle = CCCC[C@@H](N)C(=O)O

How the values were obtained:
[1] = system: methicillin-susceptible S. pseudintermedius (MSSP); experiment: microbe, parasite or virus in culture; assay type: cell-based, Staphylococcus pseudintermedius; conditions: Staphylococcus pseudintermedius, 24 h
Description: (§1) MIC of all compounds was determined in Sabouraud Dextrose broth with 1% tween 80 (SB) medium, for M. pachydermatis, and Mueller–Hinton broth (MH), for S. pseudintermedius, by the broth microdilution assay (BMD) in 96-well microtiter plates, as previously reported. Specifically, SB containing 1% Tween 80 was used instead of RPMI 1640 medium. All compounds were dissolved in ethanol and ketoconazole in dimethyl sulfoxide (DMSO). The solutions were serially diluted in SB and MH two-fold from 0.19 to 50 μM. M. pachydermatis suspension was prepared from 3-day-old colonies grown on Sabouraud agar at 30 °C. The final concentration of the yeast inoculum suspensions was equivalent to 1–3 × 10^3 CFU/mL. Bacterial suspensions were diluted to yield an optical density (OD) around 0.5 at 595 nm and further diluted to a final concentration of 1 × 10^6 CFU/mL. The compounds were added to the microbial suspension in each well yielding a final cell concentration of 5 × 10^5 CFU/mL. Positive controls included oxacillin 5 μM (2 μg/mL) and vancomycin 1.4 μM (2 μg/mL) for S. pseudintermedius or ketoconazole 0.2 μM (0.125 μg/mL) for M. pachydermatis. Negative control wells were set to contain bacteria in MH or yeasts in SB plus the amount of ethanol used to dilute each compound. Medium turbidity was measured by a microtiter plate reader (Tecan, Milan, Italy) at 595 nm after 24 h for S. pseudintermedius and 48 h for M. pachydermatis. Absorbance was proportional to microbial growth. The MIC was defined as the lowest concentration of drug that caused a prominent decrease (≥90% inhibition) in visible growth relative to that of the growth control.

[2] = system: methicillin-resistant S. pseudintermedius (MRSP); experiment: microbe, parasite or virus in culture; assay type: cell-based, Staphylococcus pseudintermedius; conditions: Staphylococcus pseudintermedius, 24 h
Description: as §1

MRSP = experiment: Checkerboard synergy of peptide 8 and oxacillin; assay type: cell-based, Staphylococcus pseudintermedius
Description: The interaction between peptide 8 and oxacillin against MRSP was evaluated by the checkerboard method. Briefly, twofold serial dilutions of oxacillin distributed in horizontal rows of 96-well microtiter plate were cross-diluted vertically by twofold serial dilutions of peptide 8 to at least double the MIC. The peptide 8 tested concentration ranging from 0.19 to 12.5 μM and oxacillin from 1.25 to 25 μM (0.5 to 10 μg/mL). Microtiter plates were inoculated with bacteria at an approximate concentration of 10^5 CFU/mL and incubated at 37 °C for 24 h. […] To evaluate the effect of the combination treatment, the fractional inhibitory concentration (FIC) index for each combination was calculated as follows: FIC index = FIC of peptide 8 + FIC of oxacillin, where FIC of peptide 8 (or oxacillin) was defined as the ratio of MIC of peptide 8 (or oxacillin) in combination and MIC of peptide 8 (or oxacillin) alone. The FIC index values were interpreted as follows: ≤0.5, synergistic; >0.5 to ≤1.0, additive; >1.0 to ≤2.0, indifferent; and >2.0, antagonistic effects.

M. pachydermatis = conditions: for MIC Values: broth microdilution, Sabouraud dextrose broth + 1% Tween 80, 48 h, ≥90% inhibition of growth, OD 595 nm; for MMC/MIC Ratio: M. pachydermatis; for MMC Values (minimum mycocidal concentration): ≥3 log10 reduction in colony count from starting inoculum, agar 72 h at 30 °C
Description: as §1

For Cc1onc(-c2ccccc2)c1C(=O)N[C@@H]1C(=O)N2[C@@H]1SC(C)(C)[C@@H]2C(=O)O [Oxacillin, oxacillin, reference compound], the MIC ([1]; MSSP, Mueller-Hinton broth, ≥90% inhibition, three independent experiments in triplicate, read-out: MIC) was under 5 µM, the MIC ([2]; MRSP, Mueller-Hinton broth, ≥90% inhibition, three independent experiments in triplicate, read-out: MIC) was 25 µM (≈ 10 µg/mL) and the “Oxacillin MIC value reduction in combination with peptide 8” value (MRSP; MRSP, oxacillin alone versus oxacillin in combination) was “about eight”. The “Concentration of oxacillin in the most synergistic combination” value (MRSP; with 1.56 μM peptide 8, MRSP, 1/8 MIC) was 3.1 µM.

For CC[C@H](C)[C@H](NC(=O)[C@H](CCCNC(=N)N)NC(=O)CNC(=O)[C@@H](CC(C)C)NC(=O)[C@H](Cc1ccccc1)NC(=O)[C@H](CCCCN)NC(=O)[C@H](CO)NC(=O)[C@H](Cc1ccccc1)NC(=O)[C@H](Cc1c[nH]c2ccccc12)NC(=O)[C@@H]1CCCN1C(=O)[C@@H](NC(=O)[C@@H](N)Cc1ccccc1)C(C)C)C(=O)N[C@@H](CC(C)C)C(N)=O [Peptide 1] (H-FVPWFSKF[dL]GRIL-NH2), the “MIC Values” (M. pachydermatis) was 25 µM.

CC[C@H](C)[C@H](NC(=O)[C@H](CCCNC(=N)N)NC(=O)[C@@H]1CCCN1C(=O)[C@@H](CC(C)C)NC(=O)[C@H](Cc1ccccc1)NC(=O)[C@H](CCCCN)NC(=O)[C@H](CO)NC(=O)[C@H](Cc1ccccc1)NC(=O)[C@H](Cc1c[nH]c2ccccc12)NC(=O)[C@@H]1CCCN1C(=O)[C@@H](NC(=O)[C@@H](N)Cc1ccccc1)C(C)C)C(=O)N[C@@H](CC(C)C)C(N)=O [Peptide 2] (H-FVPWFSKF[dL]PRIL-NH2) was tested, and the “MMC/MIC Ratio” value (M. pachydermatis) was 4, the “MIC Values” (M. pachydermatis) was 25 µM and the “MMC Values (minimum mycocidal concentration)” value (from here on “MMC Values”) (M. pachydermatis) was 100 µM.

CC[C@H](C)[C@H](NC(=O)[C@H](CCCNC(=N)N)NC(=O)[C@H]1CCCN1C(=O)[C@@H](CC(C)C)NC(=O)[C@H](Cc1ccccc1)NC(=O)[C@H](CCCCN)NC(=O)[C@H](CO)NC(=O)[C@H](Cc1ccccc1)NC(=O)[C@H](Cc1c[nH]c2ccccc12)NC(=O)[C@@H]1CCCN1C(=O)[C@@H](NC(=O)[C@@H](N)Cc1ccccc1)C(C)C)C(=O)N[C@@H](CC(C)C)C(N)=O [Peptide 3] (H-FVPWFSKF[dL][dP]RIL-NH2) was tested, and the “MMC/MIC Ratio” value (M. pachydermatis) was 4, the “MIC Values” (M. pachydermatis) was 25 µM and the “MMC Values” value (M. pachydermatis) was 100 µM.

For CC[C@H](C)[C@H](NC(=O)[C@H](CCCNC(=N)N)NC(=O)[C@@H]1C[C@@H](O)CN1C(=O)[C@@H](CC(C)C)NC(=O)[C@H](Cc1ccccc1)NC(=O)[C@H](CCCCN)NC(=O)[C@H](CO)NC(=O)[C@H](Cc1ccccc1)NC(=O)[C@H](Cc1c[nH]c2ccccc12)NC(=O)[C@@H]1CCCN1C(=O)[C@@H](NC(=O)[C@@H](N)Cc1ccccc1)C(C)C)C(=O)N[C@@H](CC(C)C)C(N)=O [Peptide 4] (H-FVPWFSKF[dL][Hyp]RIL-NH2), the “MMC/MIC Ratio” value (M. pachydermatis) was 4, the “MIC Values” (M. pachydermatis) was 25 µM and the “MMC Values” value (M. pachydermatis) was 100 µM.

For CC[C@H](C)[C@H](NC(=O)[C@H](CCCNC(=N)N)NC(=O)[C@H]1C[C@H](O)CN1C(=O)[C@@H](CC(C)C)NC(=O)[C@H](Cc1ccccc1)NC(=O)[C@H](CCCCN)NC(=O)[C@H](CO)NC(=O)[C@H](Cc1ccccc1)NC(=O)[C@H](Cc1c[nH]c2ccccc12)NC(=O)[C@@H]1CCCN1C(=O)[C@@H](NC(=O)[C@@H](N)Cc1ccccc1)C(C)C)C(=O)N[C@@H](CC(C)C)C(N)=O [Peptide 5] (H-FVPWFSKF[dL][dHyp]RIL-NH2), the “MMC/MIC Ratio” value (M. pachydermatis) was 4 and the “MMC Values” value (M. pachydermatis) was 100 µM.

For CCCC[C@@H](NC(=O)[C@@H](CC(C)C)NC(=O)[C@H](Cc1ccccc1)NC(=O)[C@H](CCCCN)NC(=O)[C@H](CO)NC(=O)[C@H](Cc1ccccc1)NC(=O)[C@H](Cc1c[nH]c2ccccc12)NC(=O)[C@@H]1CCCN1C(=O)[C@@H](NC(=O)[C@@H](N)Cc1ccccc1)C(C)C)C(=O)N[C@@H](CCCNC(=N)N)C(=O)N[C@H](C(=O)N[C@@H](CC(C)C)C(N)=O)[C@@H](C)CC [Peptide 6] (H-FVPWFSKF[dL][dNle]RIL-NH2; N-terminus assumed), the “MMC/MIC Ratio” value (M. pachydermatis) was 4, the “MIC Values” (M. pachydermatis) was 25 µM and the “MMC Values” value (M. pachydermatis) was 100 µM.

For CC[C@H](C)[C@H](NC(=O)[C@H](CCCNC(=N)N)NC(=O)[C@H](CCCCN)NC(=O)[C@@H](CC(C)C)NC(=O)[C@H](Cc1ccccc1)NC(=O)[C@H](CCCCN)NC(=O)[C@H](CO)NC(=O)[C@H](Cc1ccccc1)NC(=O)[C@H](Cc1c[nH]c2ccccc12)NC(=O)[C@@H]1CCCN1C(=O)[C@@H](NC(=O)[C@@H](N)Cc1ccccc1)C(C)C)C(=O)N[C@@H](CC(C)C)C(N)=O [Peptide 7] (H-FVPWFSKF[dL]KRIL-NH2; N-terminus assumed), the “MMC/MIC Ratio” value (M. pachydermatis) was 2, the “MIC Values” (M. pachydermatis) was 12.5 µM and the “MMC Values” value (M. pachydermatis) was 25 µM.

CC[C@H](C)[C@H](NC(=O)[C@H](CCCNC(=N)N)NC(=O)[C@H](Cc1c[nH]c2ccccc12)NC(=O)[C@@H](CC(C)C)NC(=O)[C@H](Cc1ccccc1)NC(=O)[C@H](CCCCN)NC(=O)[C@H](CO)NC(=O)[C@H](Cc1ccccc1)NC(=O)[C@H](Cc1c[nH]c2ccccc12)NC(=O)[C@@H]1CCCN1C(=O)[C@@H](NC(=O)[C@@H](N)Cc1ccccc1)C(C)C)C(=O)N[C@@H](CC(C)C)C(N)=O [Peptide 9] (H-FVPWFSKF[dL]WRIL-NH2) was tested, and the “MMC/MIC Ratio” value (M. pachydermatis) was 4, the “MIC Values” (M. pachydermatis) was 25 µM and the “MMC Values” value (M. pachydermatis) was 100 µM.

For CC[C@H](C)[C@H](NC(=O)[C@H](CCCNC(=N)N)NC(=O)[C@@H](Cc1c[nH]c2ccccc12)NC(=O)[C@@H](CC(C)C)NC(=O)[C@H](Cc1ccccc1)NC(=O)[C@H](CCCCN)NC(=O)[C@H](CO)NC(=O)[C@H](Cc1ccccc1)NC(=O)[C@H](Cc1c[nH]c2ccccc12)NC(=O)[C@@H]1CCCN1C(=O)[C@@H](NC(=O)[C@@H](N)Cc1ccccc1)C(C)C)C(=O)N[C@@H](CC(C)C)C(N)=O [Peptide 10] (H-FVPWFSKF[dL][dW]RIL-NH2), the “MMC/MIC Ratio” value (M. pachydermatis) was 2, the “MIC Values” (M. pachydermatis) was 12.5 µM and the “MMC Values” value (M. pachydermatis) was 25 µM.

For CC[C@H](C)[C@H](NC(=O)[C@H](CCCNC(=N)N)NC(=O)C1(NC(=O)[C@@H](CC(C)C)NC(=O)[C@H](Cc2ccccc2)NC(=O)[C@H](CCCCN)NC(=O)[C@H](CO)NC(=O)[C@H](Cc2ccccc2)NC(=O)[C@H](Cc2c[nH]c3ccccc23)NC(=O)[C@@H]2CCCN2C(=O)[C@@H](NC(=O)[C@@H](N)Cc2ccccc2)C(C)C)Cc2ccccc2C1)C(=O)N[C@@H](CC(C)C)C(N)=O [Peptide 11] (H-FVPWFSKF[dL][Aic]RIL-NH2), the “MMC/MIC Ratio” value (M. pachydermatis) was 4, the “MIC Values” (M. pachydermatis) was 25 µM and the “MMC Values” value (M. pachydermatis) was 100 µM.

CN[C@H](CC(C)C)C(=O)N[C@H]1C(=O)N[C@@H](CC(N)=O)C(=O)N[C@H]2C(=O)N[C@H]3C(=O)N[C@H](C(=O)N[C@H](C(=O)O)c4cc(O)cc(O)c4-c4cc3ccc4O)[C@H](O)c3ccc(c(Cl)c3)Oc3cc2cc(c3O[C@@H]2O[C@H](CO)[C@@H](O)[C@H](O)[C@H]2O[C@H]2C[C@](C)(N)[C@H](O)[C@H](C)O2)Oc2ccc(cc2Cl)[C@H]1O [Vancomycin, vancomycin, reference compound] gave an MIC [1] of under 1.4 µM and an MIC [2] of under 1.4 µM.
